Test results from PubChem BioAssay (NCI).
Values joined by “and” are separate entries in the source; they are usually repeats but may differ in a detail not shown here. Equal values may be shown once.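 48-hour exposure; five concentrations; linearly interpolated endpoints. GI50 is the concentration that inhibits growth by half. Definition used: TGI = concentration required for complete inhibition of growth.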

Columns and labels:
Test in all cases: NCI tumour cell line growth inhibition, 48 h
HCC-2998 colon = tested on: HCC-2998 colon
DMS 114 small cell lung = tested on: DMS 114 small cell lung
NCI-H23 lung = tested on: NCI-H23 lung
DMS 273 small cell lung = tested on: DMS 273 small cell lung
KM12 colon = tested on: KM12 colon
DLD-1 colon = tested on: DLD-1 colon
COLO 205 colon = tested on: COLO 205 colon
HOP-18 NSCLC = tested on: HOP-18 NSCLC
A498 renal = tested on: A498 renal
XF 498 CNS = tested on: XF 498 CNS
MDA-MB-231 breast = tested on: MDA-MB-231 breast
HS 578T breast = tested on: HS 578T breast

| SMILES | TGI (HCC-2998 colon) | TGI (DMS 114 small cell lung) | TGI (NCI-H23 lung) | TGI (DMS 273 small cell lung) | TGI (KM12 colon) | TGI (DLD-1 colon) | TGI (COLO 205 colon) | TGI (HOP-18 NSCLC) | TGI (A498 renal) | TGI (XF 498 CNS) | TGI (MDA-MB-231 breast) | GI50 (DLD-1 colon) | GI50 (COLO 205 colon) | GI50 (HOP-18 NSCLC) | TGI (HS 578T breast) |
| --- | --- | --- | --- | --- | --- | --- | --- | --- | --- | --- | --- | --- | --- | --- | --- |
| CC(C)c1cccc(C(C)C)c1NC(=O)C(=O)Cc1nc2ccc([N+](=O)[O-])cc2[nH]c1=O | > 100 µM | > 100 µM | > 100 µM | > 100 µM | 28.7 µM | > 100 µM | > 100 µM | > 100 µM | > 100 µM |  |  |  |  |  |  |
| CCOC1=C2N=C(C(CC)c3ccccc3F)N=C2C(=O)c2ccccc21 (centres undefined) | > 100 µM | > 100 µM | > 100 µM | > 100 µM | > 100 µM |  | > 100 µM |  |  |  |  |  |  |  |  |
| CC1=C(c2nc3ccccc3s2)C(=O)OC1(C)C | > 100 µM | > 100 µM | > 100 µM | > 100 µM | > 100 µM | > 100 µM | > 100 µM |  |  | > 100 µM |  |  |  |  |  |
| COc1ccc(N2C(=O)c3c(c4[nH]c5ccccc5c4c4ccc(C(C)(C)C)cc34)C2=O)cc1 | > 100 µM | > 100 µM | 51 µM | > 100 µM | > 100 µM | > 100 µM | > 100 µM | > 100 µM | 77.1 µM | 49.8 µM |  |  |  |  |  |
| CCOC(=O)c1c2ccc(/C=C/c3ccccn3)ccc-2c(C(=O)OCC)c1N | > 100 µM | > 100 µM | > 100 µM | > 100 µM | > 100 µM | > 100 µM | > 100 µM | > 100 µM | > 100 µM |  |  |  |  |  |  |
| COc1ccc2[nH]c3c(c2c1)[C@H](c1ccccc1)C[C@@H]1C(=O)N(c2ccccc2)C(=O)[C@H]31 | > 100 µM | 92.7 µM |  | > 100 µM | 43.6 µM | > 100 µM | > 100 µM | 6.5 µM | 49.6 µM | 55.8 µM |  |  |  |  |  |
| N#CC(NNC(=O)Cc1ccccc1)c1cccc(O)c1 (centres undefined) |  | > 100 µM | > 100 µM | > 100 µM | > 100 µM | > 100 µM | > 100 µM | > 100 µM |  |  |  |  |  |  |  |
| Cc1cc2ncn(-c3nc4ccccc4nc3C(C#N)S(C)(=O)=O)c2cc1C (centres undefined) | > 100 µM | > 100 µM | > 100 µM | > 100 µM | > 100 µM | > 100 µM | > 100 µM |  | > 100 µM | > 100 µM |  |  |  |  |  |
| COCC(C)(C)N=CN1Cc2cc3ccccc3nc2C1 |  | > 100 µM | > 100 µM |  | > 100 µM | > 100 µM | > 100 µM | > 100 µM |  | > 100 µM |  |  |  |  |  |
| CC(C)/C=C1\CCC(CN(C)C)C1=O (centres undefined) | 19.1 µM | 10.3 µM | 25.4 µM |  | 4.65 µM | 11.2 µM | 1.41 µM | 8.72 µM | 16.7 µM | 4.17 µM | 3.01 µM |  |  |  |  |
| CC(=O)Nc1[nH]n(C)c(=O)c1-c1nnc(C)s1 | > 100 µM | > 100 µM | > 100 µM | > 100 µM | > 100 µM | > 100 µM | > 100 µM |  | > 100 µM | > 100 µM |  |  |  |  |  |
| CC(C)(C)N=CN1C=Cc2nc3ccccc3cc2C1 | > 100 µM | > 100 µM | > 100 µM | > 100 µM | > 100 µM | > 100 µM | > 100 µM | > 100 µM | > 100 µM | > 100 µM |  |  |  |  |  |
| O=C1[C@@H]2C(c3ccc(Br)cc3)=NO[C@@H]2C(=O)N1c1ccc(Cc2ccc(N3C(=O)[C@H]4C(c5ccc(Br)cc5)=NO[C@H]4C3=O)cc2)cc1 | > 3.48 µM | > 3.48 µM | > 3.48 µM | > 40 µM | > 3.48 µM | > 40 µM | > 40 µM | > 40 µM | > 3.48 µM and 16.2 µM |  |  | > 40 µM | > 40 µM | > 40 µM |  |
| CS(=O)(=O)N1CC(CCl)c2ccc(NO)cc21 (centres undefined) | 28.5 µM |  | 18 µM |  | 36.2 µM |  | > 57.2 µM |  | 31.5 µM |  | 30.5 µM |  |  |  | 60 µM |
| COC(=O)C(=O)C(C(=O)OC)C(=O)C(=O)Nc1c(C)cccc1C (centres undefined) | > 100 µM | > 100 µM | > 100 µM |  | > 100 µM | > 100 µM | > 100 µM | > 100 µM | > 100 µM | > 100 µM |  |  |  |  |  |
| Cn1c(=O)c2[nH]c(N=O)nc2n(C)c1=O | > 100 µM |  | > 100 µM |  | > 100 µM |  | > 100 µM |  | > 100 µM |  | > 100 µM |  |  |  | > 100 µM |
| COc1cc2ccc3c4ccccc4cnc3c2cc1OC | > 100 µM |  | > 100 µM |  | > 100 µM | > 100 µM | > 100 µM | > 100 µM |  |  |  |  |  |  |  |
